In patent publication US4247559A, “N-substituted maleimides in liquid concentrates” (Abbott Laboratories, priority 1979, dated 1981):

How the values were obtained:
Type in all cases: cell-based
[1] = test system: A. niger and P. funiculosum; experiment: antifungal test on agar plates, visual inspection of growth; parameters: unit not given here; settings: agar plates, 10,000 units each, 30° C. for two weeks
Experimental: In a related test, the above biocide solutions are added to agar plates at various concentrations and the plates are then inoculated with 1 ml. of a broth containing 10,000 units each of A. niger and P. funiculosum. The plates are then incubated at 30° C. for two weeks, and growth of the fungi is visually inspected to establish the minimum inhibitory concentration (MIC).

[2] = test system: Aerobacter aerogenes, Pseudomonoas Sp., Bacillus subtilus and Bacillus megaterium; experiment: antibacterial test in nutrient broth tubes, presence or absence of turbidity; parameters: unit not given here; settings: 48 hours at 37° C., subcultured and incubated 24 hours longer, challenge 1×10^6 colony-forming units each
Experimental: (§1) The new compounds are dissolved in DMF at a concentration of 50 mg/ml. and diluted with water to the appropriate concentration to be added to a nutrient broth in test tubes. The challenge mixture contains 1×10^6 colony-forming units each of Aerobacter aerogenes, Pseudomonoas Sp., Bacillus subtilus and Bacillus megaterium. Following inoculation, the tubes are incubated 48 hours at 37° C., subcultured to fresh nutrient broth and incubated 24 hours longer. The results are recorded as presence or absence of turbidity, turbidity indicating growth of the inoculum due to inactivity of the biocide at the concentration used in the broth.

[3] = test system: most common industrial fungi and bacteria; experiment: biocidal activity (summary statements on bacteria and fungi); settings: conclusion from the table, in words
Experimental: as §1, with “broth. In a related test, the above biocide solutions are added to agar plates at various concentrations and the plates are then inoculated with 1 ml. of a broth containing 10,000 units each of A. niger and P. funiculosum. The plates are then incubated at 30° C. for two weeks, and growth of the fungi is visually inspected to establish the minimum inhibitory concentration (MIC).” for “broth.”

SMILES | Antifungal MIC [1] | Antibacterial MIC [2] | biocidal activity [3]
O=C1C=CC(=O)N1c1ccc(S(=O)(=O)C(I)I)cc1 [R= p-CHI2, N-[p-(diiodomethylsulfonyl)phenyl]maleimide] | 1000 | 1000 | –
O=C1C=CC(=O)N1c1ccc(S(=O)(=O)CI)cc1 [R= p-CH2 I] | 100 | – | –
O=C1C=CC(=O)N1c1ccc(S(=O)(=O)CCl)cc1 [R=p-CH2 Cl, N-[p-(chloromethylsulfonyl)phenyl]maleimide] | 1000 | 1000 | –
O=C1C=CC(=O)N1c1ccc(S(=O)(=O)C(Cl)(Cl)Cl)cc1 [R= CCL3, reference compound] | inactive | inactive | ineffective
O=C1C=CC(=O)N1c1ccc(S(=O)(=O)C(Cl)Cl)cc1 [R= p-CHCl2, N-[p-(dichloromethylsulfonyl)phenyl]maleimide] | 1000 | 1000 | –
